Patent publication US5130485A, “N-hydroxy-N-(3-(2-substituted phenyl)prop-2-enyl)ureas and thioureas useful as 5-lipoxygenase inhibiting agents” (Eli Lilly and Company, priority 1991, dated 1992)

Experiments:
[1] = system: 5-LO; assay: In vitro inhibition of 5-LO: Schultz-Dale reaction (ovalbumin-induced contraction of tracheal strips from actively sensitized guinea pigs); assay type: tissue-based, guinea pig (male Hartley); conditions: Cavia porcellus; sensitized guinea-pig tracheal strips; antigen (OA) 30 ng/ml; 30 min preincubation; indomethacin 5 μM, pyrilamine 10 μM
Experimental: Male, Hartley strain guinea-pigs (200-250 g) were actively sensitized by three injections of ovalbumin (OA, 10 mg/kg). The OA was administered intraperitoneally on Days 1 and 3 and subcutaneously on Day 5. In vitro experiments were performed 21-25 days later.
On the day of the experiment, guinea pigs were killed by asphyxiation with CO2 and the tracheas removed, cleaned of surrounding connective tissue and cut into sprial strips. Each strip was divided in half for paired experiments. Tissues were placed in 10 ml jacketed tissue baths maintained at 37° C. and attached with cotton thread to Grass force-displacement transducers (FT03C). […] Tracheal strips were bathed in modified Krebs' solution of the following composition (millimolar) NaCl, 118.2; KCl, 4.6; CaCl2.2H2 O, 2.5; MgSO4.7H2 O, 1.2; NaHCO3, 24.8; KH2 PO4, 1.0; and dextrose, 10.0. The buffer contained indomethacin (5 μM) which potentiated the contractions of the cysteinyl leukotrienes (LT) by removing the influence of cyclooxygenase products. The tissue baths were aerated with 95% O2 :5% CO2. Tracheal strips were placed under a resting tension of 2 g, and the tissues were allowed a minimal stabilization period of 60 minutes before undergoing experimentation. Bath fluid was changed at 15 minute intervals during the stabilization period.
Concentration-response curves
Cumulative concentration-response curves were obtained from tracheal strips by increasing the agonist concentration in the organ bath by half-log increments while the previous concentration remained in contact with the tissues van Rossum, Arch, Int. Pharmacodymn Ther., 143, 299-330 (1963). Agonist concentration was increased after reaching the plateau of the contraction elicited by the preceeding concentration. One concentration-response curve was obtained from each tissue. To minimize variability between tissues, contractile responses were expressed as a percentage of the maximal response obtained with carbachol (10 μM), added to the bath at the end of the concentration-response curve. Initially, tissues were challenged with carbachol (10 μM) following the 60 minute stabilization period to insure tissue viability. After recording the maximal response to the initial carbachol challenge, the tissues were washed and re-equilibrated for 60 minutes before starting the experimental protocol.
Determination of EC50 and % Inhibition
To evaluate the effects of novel 5-lipoxygenase inhibitors in the Schultz-Dale reaction, each compound was incubated with the tissues 30 minutes before starting the curves. Vehicle (DMSO) was given to the paired control tissue. Pyrilamine (10 μM) was added to all baths at this time to block the actions of released histamine. Responses obtained at the antigen concentration of 30 ng/ml were recorded in the absence and presence of drug and percent inhibition was calculated for each pair of tissues. IC50 values were determined by linear regression.
LT or carbachol concentration-response curves were used to determine specificity of the agent as a 5-lipoxygenase inhibitor. In these experiments the test compound was incubated as described above. EC50 values, which represent the molar concentration of agonist required to induce 50% of maximal response, was determined by linear regression. Differences in EC50 values, in the presence and absence of test compound were analyzed by Student's t-test with P<0.05 regarded as significant.

[2] = system: 5-LO; assay: In vivo inhibition of OA-induced increase in tracheal pressure in passively sensitized guinea pigs, oral dosing; parameters: species or system guinea pig (male Hartley); conditions: 2 hr, OA challenge; for inhibition in vivo at 30 mg/kg: Cavia porcellus, read-out: Inhibition of 5-LO In Vivo Percent Inhibition at 30 mg/kg, po, 2 hr.
Experimental: Male Hartley guinea pigs (350-500 g) were passively sensitized against ovalbumin by i.p. administration of 0.3 ml of antiserum 2 days preceeding the experiment. Hyperimmune serum was prepared from actively sensitizing male guinea pigs conditioned with 2 mg of ovalbumin in 50% Complete Freund's Adjuvant i.p. on days 1 and 5. On day 21, the animals were bled and the serum collected and stored at -20° C. On the day of the experiment the passively sensitized guinea pigs were anesthetized with 35 to 40 mg/kg of pentobarbital sodium given i.p. The right jugular vein was cannulated with Tygon microbore tubing (o.d.=03) connected to a syringe for administration of selected drugs. Blood pressure was measured with a Statham pressure transducer connected to a Tygon catheter placed in the left carotid artery. The trachea was cannulated and each animal was ventilated with room air by means of a Harvard rodent respirator set to deliver a tidal volume of 1 ml/100 g body weight with a rate of 60 breaths/minute. Succinylcholine (5 mg/kg) was given i.v. to suppress spontaneous respiration. Intratracheal pressure, an index of total pulmonary resistance, was measured with a Statham pressure transducer connected to a T-tube on the tracheal cannula. […] Body temperature was maintained within normal limits by means of a Deltaphase isothermal pad. Prior to surgery, test compound or vehicle (PEG 400) was administered to each guinea pig by oral gavage and OA challenge was at designated times following oral dosing. The animals were pretreated i.v. with pyrilamine (5 mg/kg), propranolol (1 mg/kg) and indomethacin (10 mg/kg) 5 minutes prior to the OA challenge. OA-induced increase in tracheal pressure was expressed as a percentage of the maximal pressure obtained by clamping the trachea with a hemistat. To determine the effect of each drug, a % inhibition value was calculated from the vehicle and drug treated animals at each concentration tested.

Row | Compound | IC50 [1] | inhibition in vivo at 30 mg/kg [2] | Inhibition of 5-LO In Vivo Percent Inhibition (dose of 10 mg/kg) ([2]; 10 mg/kg (footnote a))
1 | C#CCSc1c(F)cccc1C=CCN(O)C(N)=O [Example 9, N-hydroxy-N-[3-[3-fluoro-2-(2-propynylthio)phenyl]prop-2-enyl]urea] | 1000 nM | 93% | –
2 | CC#CCSc1ccccc1C=CCN(O)C(N)=O [Example 3, N-hydroxy-N-[3-[2-(2-butynylthio)phenyl]prop-2-enyl]urea] | 600 nM | – | 30%
3 | NC(=O)N(O)CC=Cc1ccccc1SCC1CC1 [Example 6, N-hydroxy-N-[3-[2-(cyclopropylmethylthio)phenyl]-prop-2-enyl]urea] | 620 nM | 75% | –
4 | C=CCCSc1ccccc1C=CCN(O)C(N)=O [Example 4, N-hydroxy-N-[3-[2-(3-butenylthio)phenyl]-prop-2-enyl]urea] | 390 nM | 81% | –
5 | C#CCOc1ccccc1C=CCN(O)C(N)=O [Example 7, N-hydroxy-N-[3-[2-(2-propynyloxy)phenyl]prop-2-enyl]urea] | 2400 nM | 93% | –
6 | NC(=O)N(O)CC=Cc1ccccc1SCC1CCCCC1 [Example 5, N-hydroxy-N-[3-[2-(cyclohexylmethylthio)phenyl]-prop-2-enyl]urea] | 1200 nM | 76% | –
7 | C#CCSc1ccccc1C=C(C)CN(O)C(N)=O [Example 8, N-hydroxy-N-[2-methyl-3-[2-(2-propynylthio)phenyl]prop-2-enyl]urea] | 1800 nM | 51% | –
8 | C#CCCSc1ccccc1C=CCN(O)C(N)=O [Example 2, N-hydroxy-N-[3-[2-(3-butynylthio)phenyl]prop-2-enyl]urea] | 1000 nM | 50% | –
9 | C#CCSc1ccccc1C=CCN(O)C(N)=O [Example 1, N-hydroxy-N-[3-[2-(2-propynylthio)phenyl]prop-2-enyl]urea] | 2100 nM | 78% | –
